Data published in ChEMBL document CHEMBL1201862, “PubChem BioAssay data set” (2004).
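Following 48 hours of exposure in 96-well plates, responses at five concentrations were used to interpolate endpoints linearly. The concentration for 50% growth inhibition is given as GI50.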 Activity calls are given as the source filed them. Cut-off read from the data, not from the text of the source: active = GI50 up to about 1.1 µM and inactive = higher.

Assays:
Experiment in all cases: DTP human tumour cell line panel, 48 h
[1] = system: DMS-273
[2] = system: DLD-1
[3] = system: SNB-78
[4] = system: XF498
[5] = system: DMS-114
[6] = system: LXFL 529
[7] = system: RXF 631
[8] = system: KM-20L2
[9] = system: HOP-18

Compound | GI50 [1] | GI50 [2] | GI50 [3] | GI50 [4] | GI50 [5] | GI50 [6] | GI50 [7] | GI50 [8] | GI50 [9]
Cn1c2ccccc2c2cc(-c3ccccc3)c3c(c21)C(=O)c1ccccc1C3=O | 17 µM (inactive) | 13.3 µM (inactive) | 15.1 µM (inactive) | 14.6 µM (inactive) | 12.5 µM (inactive) | 14.3 µM (inactive) | 34 µM (inactive) |  | 
Cc1ccc([N+](=O)[O-])cc1NC(=O)C(=O)Cc1nc2ccc(C(=O)c3ccccc3)cc2nc1O | > 100 µM (inactive) | > 100 µM (inactive) |  | > 100 µM (inactive) | 90.6 µM (inactive) | > 100 µM (inactive) | > 100 µM (inactive) | > 100 µM (inactive) | > 100 µM (inactive)
C=C1C(=O)OC2CC3(C)C=CC(=O)C(=C)C3CC12 (stereo not given) | 1.22 µM (inactive) | 0.329 µM (active) | 2.43 µM (inactive) | 1.72 µM (inactive) | 3.61 µM (inactive) | 0.664 µM (active) |  | 2.28 µM (inactive) | 3.06 µM (inactive)
CN(C(=O)c1ccc(Cl)cc1)C(=S)N1CCN(c2ccccn2)CC1 | > 100 µM (inactive) | > 100 µM (inactive) | > 100 µM (inactive) |  | 69.8 µM (inactive) | > 100 µM (inactive) |  | > 100 µM (inactive) | > 100 µM (inactive)
COc1ccccc1NC(=O)CC(=O)N/N=C/c1ccc(N(CCC#N)S(=O)(=O)c2ccccc2)cc1 |  | > 100 µM (inactive) | > 100 µM (inactive) | > 100 µM (inactive) | > 100 µM (inactive) | > 100 µM (inactive) |  | > 100 µM (inactive) | > 100 µM (inactive)
Cc1cc2c(c3oc(C4(C)OC4C4OC4C)cc(=O)c13)C(=O)c1c(O)c(C3CC(C)(N(C)C)C(O)C(C)O3)cc(C3CC(N(C)C)C(O)C(C)O3)c1C2=O (stereo not given) | 0.0025 µM (active) | 0.0025 µM (active) | 0.0025 µM (active) |  |  | 0.000227 µM (active) | 0.000161 µM (active) |  | 0.00069 µM (active)
COC(=O)C1=Cc2c(cc(OC)c(OC)c2OC)[C@H](c2ccc(OC)c(OC)c2OC)C1C(=O)OC (stereo not given in full) | 29.5 µM (inactive) | > 100 µM (inactive) | 40.8 µM (inactive) |  | 61.7 µM (inactive) | > 100 µM (inactive) | 71.8 µM (inactive) | > 100 µM (inactive) | 
CCCCN(CCCC)CC(C(=O)Nc1ccc([N+](=O)[O-])cc1[N+](=O)[O-])/C(C)=N\NC(=O)c1ccncc1 (stereo not given) | > 100 µM (inactive) | > 100 µM (inactive) | > 100 µM (inactive) | > 100 µM (inactive) | > 100 µM (inactive) | > 100 µM (inactive) | > 100 µM (inactive) | > 100 µM (inactive) | 
CCOP(=O)(OCC)C(C(=O)OC)C(=O)C(=O)Nc1cccc([N+](=O)[O-])c1 (stereo not given) | > 100 µM (inactive) | > 100 µM (inactive) | > 100 µM (inactive) | > 100 µM (inactive) | > 100 µM (inactive) | > 100 µM (inactive) | > 100 µM (inactive) | > 100 µM (inactive) | > 100 µM (inactive)
Nc1ccn(CCNCCn2cnc3nc(N)[nH]c(=O)c32)c(=O)n1 |  | > 100 µM (inactive) | > 100 µM (inactive) | > 100 µM (inactive) | > 100 µM (inactive) | > 100 µM (inactive) | > 100 µM (inactive) | > 100 µM (inactive) | > 100 µM (inactive)
COC(=O)C1C(/C=C/c2ccoc2)ON2CCC[C@@H]12 (stereo not given in full) | 36.2 µM (inactive) | > 100 µM (inactive) | > 100 µM (inactive) |  | > 100 µM (inactive) | > 100 µM (inactive) |  | > 100 µM (inactive) | 70.3 µM (inactive)
Oc1ccc2c(O)cc(-c3ccccc3)nc2c1 | 28.1 µM (inactive) | 18.3 µM (inactive) | 48 µM (inactive) | 25.1 µM (inactive) | 18.7 µM (inactive) | 26.5 µM (inactive) | 30.5 µM (inactive) | 19.9 µM (inactive) | 26.2 µM (inactive)
CN(C)c1ccc(C(=C(c2ccc(N(C)C)cc2)c2ccc(N(C)C)cc2)c2ccc(N(C)C)cc2)cc1 | 15.8 µM (inactive) | 16.1 µM (inactive) | 82.2 µM (inactive) |  | 15.4 µM (inactive) | 12.3 µM (inactive) | 13.6 µM (inactive) | 16.9 µM (inactive) | 7.01 µM (inactive)
Clc1ccc2ns[s+]c2c1 | 0.815 µM (active) | 0.625 µM (active) | > 100 µM (inactive) | > 100 µM (inactive) | 2.61 µM (inactive) | 0.166 µM (active) |  | 0.317 µM (active) | 11.7 µM (inactive)
CC1OC(OC2C[C@](O)(C(=O)CF)Cc3c(O)c4c(c(O)c32)C(=O)c2ccccc2C4=O)CC(N)C1O (stereo not given in full) | < 0.01 µM (active) | 0.0484 µM (active) | 0.241 µM (active) | < 0.0164 µM (active) | < 0.0109 µM (active) | 0.0596 µM (active) |  | 0.0574 µM (active) | 
Cc1cccc(C)c1NC(=O)/C(Cl)=C(/Cl)C(=O)O | 18.6 µM (inactive) | 7.28 µM (inactive) | 28.2 µM (inactive) | 15 µM (inactive) | 21.3 µM (inactive) | 8.11 µM (inactive) |  | 6.92 µM (inactive) | 20.3 µM (inactive)
C[n+]1c2n(c3nc(N)[nH]c(=O)c31)C1OC(C2)C(O)C1O (stereo not given) | > 100 µM (inactive) | > 100 µM (inactive) | > 100 µM (inactive) | > 100 µM (inactive) | > 100 µM (inactive) | > 100 µM (inactive) | > 100 µM (inactive) | > 100 µM (inactive) | > 100 µM (inactive)
Cc1ccc(S(=O)OC2C3CC4CC(C3)CC2C4)cc1 (stereo not given) | > 100 µM (inactive) | > 100 µM (inactive) | > 100 µM (inactive) | > 100 µM (inactive) | > 100 µM (inactive) | > 100 µM (inactive) |  | > 100 µM (inactive) | > 100 µM (inactive)
COc1ccc(-c2c(N)[n+]([O-])c3ccccc3[n+]2[O-])cc1OC | > 100 µM (inactive) | > 100 µM (inactive) | > 100 µM (inactive) |  | > 100 µM (inactive) | > 100 µM (inactive) | 86.3 µM (inactive) | > 100 µM (inactive) | > 100 µM (inactive)
Nn1c(CCCl)nc2c(Br)cc(Br)cc2c1=O | 30.3 µM (inactive) | 26.8 µM (inactive) | 34 µM (inactive) | 20.6 µM (inactive) | 22.5 µM (inactive) | 24.7 µM (inactive) |  | 26 µM (inactive) | 33.3 µM (inactive)
Cc1c(Cl)ccc2c1NC(=O)C2(O)CC(=O)c1ccc2ccccc2c1 (stereo not given) |  | 79.8 µM (inactive) |  | > 100 µM (inactive) | 21.1 µM (inactive) |  | 57.1 µM (inactive) | 69 µM (inactive) | > 100 µM (inactive)
CC1(C)OCN(c2ccc(S(N)(=O)=O)cc2)Cn2c1nc1ccccc12 | > 100 µM (inactive) | > 100 µM (inactive) | > 100 µM (inactive) | > 100 µM (inactive) | > 100 µM (inactive) | > 100 µM (inactive) |  | > 100 µM (inactive) | > 100 µM (inactive)
COc1ccc(CNc2nc3c(NC(C)=O)cc(C(F)(F)F)cc3nc2-c2ccccc2)cc1OC | 21.9 µM (inactive) | > 100 µM (inactive) | 10.7 µM (inactive) | 78 µM (inactive) | 15.2 µM (inactive) | 16.4 µM (inactive) |  | > 100 µM (inactive) | 
Cc1cccc(C(C)(C)C)c1NC(=O)C(C#N)C1=C(Cl)C(=O)c2ccccc2C1=O (stereo not given) | 17.8 µM (inactive) | 14.4 µM (inactive) | 14.4 µM (inactive) | 16 µM (inactive) | 16.6 µM (inactive) | 15.5 µM (inactive) |  | 20.5 µM (inactive) | 12 µM (inactive)
Cc1ccc(/C=C/C(=O)c2sc(C(N)=S)nc2C)cc1 | > 100 µM (inactive) | > 100 µM (inactive) | > 100 µM (inactive) |  |  |  |  | > 100 µM (inactive) | > 100 µM (inactive)
O=C(O)Cc1cccc2c(=O)cc(-c3ccccc3)oc12 [MITOFLAXONE] | > 250 µM (inactive) | > 250 µM (inactive) | > 250 µM (inactive) | 33.7 µM (inactive) | 227 µM (inactive) |  |  | > 250 µM (inactive) | 156 µM (inactive)
Cc1ccc(C(c2c(O)c3ccccc3n(-c3ccccc3)c2=O)c2c(O)c3ccccc3n(-c3ccccc3)c2=O)cc1 | > 100 µM (inactive) | > 100 µM (inactive) | > 100 µM (inactive) | > 100 µM (inactive) | > 100 µM (inactive) | > 100 µM (inactive) |  | > 100 µM (inactive) | > 100 µM (inactive)
C=CC(=O)N1C/C(=C\c2ccc(Cl)c(Cl)c2)C(=O)/C(=C/c2ccc(Cl)c(Cl)c2)C1 | 0.155 µM (active) | 0.0374 µM (active) | 0.261 µM (active) |  | 0.12 µM (active) | 0.127 µM (active) | 0.449 µM (active) | 0.216 µM (active) | 0.362 µM (active)
CC(C)(C)C(C#N)(C#N)c1ccc(C(C#N)(C#N)C(C)(C)C)nn1 | > 100 µM (inactive) | > 100 µM (inactive) | 74.8 µM (inactive) | 38.6 µM (inactive) | > 100 µM (inactive) | > 100 µM (inactive) | > 100 µM (inactive) | > 100 µM (inactive) | 
